SMILES strings stand for the structures.

In this test the test system is HCV. Kind of test: Assay of anti-HCV activity in HCV-infected Huh7.5 cells (intracellular HCV RNA by one-step quantitative RT-PCR). Conditions: Hepatitis C virus; compound at 1 μM; Huh7.5 cells infected with HCV; 96 hrs; intracellular HCV RNA vs viral control; read-out: inhibitory activities (inhibitory levels of the compounds against HCV replication). In kind it is cell-based. Here is the method:
100 μL Huh7.5 cells were seeded at a density of 1×10^5/mL in a 96-well cell culture plate and incubated in an incubator at 37° C., 5% CO2 and saturated humidity for 6 hrs. Then, while infecting Huh7.5 cells with viral solution containing HCV virus particles, the compounds of the present invention (including all specific compounds listed herein) were added at a concentration of 1 μM, respectively. After continuing incubation for 96 hrs, the total intracellular RNA was extracted separately, and the content of intracellular HCV RNA was measured by one-step quantitative RT-PCR, compared with the RNA level of the viral control, and the inhibition rate of the compounds against HCV was calculated.
Regarding `CCN(CC)CCN(C)c1ccc(C(F)(F)F)c(CN2CCN(C(c3ccc(Cl)c(Cl)c3)c3ccc(Cl)c(Cl)c3)CC2)c1` [Compound 94, N1-(3-[{4-[bis(3,4-dichlorophenyl)methyl]piperazin-1-yl}methyl]-4-(trifluoromethyl)phenyl)-N2,N2-diethyl-N1-methylethan-1,2-diamine], the inhibition at 1 µM was > 75%.

As to `CCC(c1ccc(Br)cc1)N1CCN(Cc2cc(N(C)CCN(C)C)ccc2C(F)(F)F)CC1` (centres unmarked) [Compound 8, N^1-(3-((4-(1-(4-bromophenyl)propyl)piperazin-1-yl)methyl)-4-(trifluoromethyl)phenyl)-N^1,N^2,N^2-trimethylethan-1,2-diamine], the inhibition at 1 µM is > 75%.

Turning to `CN1CCCN(c2ccc(C(F)(F)F)c(CN3CCN(c4ccc(F)cc4)CC3)c2)CC1` [Compound 36, 1-(3-((4-(4-fluorophenyl)piperazin-1-yl)methyl)-4-(trifluoromethyl)phenyl)-4-methyl-1,4-diazepane], the inhibition at 1 µM was > 75%.

As for `CC1CN(c2ccc(Br)c(C(F)(F)F)c2)CCN1Cc1cc(N(C)CCN(C)C)ccc1C(F)(F)F` (centres unmarked) [Compound 33, N^1-(3-((4-(4-bromo-3-(trifluoromethyl)phenyl)-2-methylpiperazin-1-yl)methyl)-4-(trifluoromethyl)phenyl)-N^1,N^2,N^2-trimethylethan-1,2-diamine], the inhibition at 1 µM was > 75%.

Consider `CC1CN(c2ccc(Cl)cc2)CCN1Cc1cc(N2CCCN(C)CC2)ccc1C(F)(F)F` (centres unmarked) [Compound 22, 1-(3-((4-(4-chlorophenyl)-2-methylpiperazin-1-yl)methyl)-4-(trifluoromethyl)phenyl)-4-methyl-1,4-diazepane], for which the inhibition at 1 µM is > 75%.

As for `N#Cc1ccc(NCCCn2ccnc2)cc1CN1CCN(C(c2ccc(Cl)cc2)c2ccc(Cl)cc2)CC1` [Compound 106, 4-([3-(1H-imidazol-1-yl)propyl]amino)-2-({4-[bis(4-chlorophenyl)methyl]piperazin-1-yl}methyl)benzonitrile], the inhibition at 1 µM was > 75%.

Turning to `Cc1ccc(C(c2ccc(C)cc2)N2CCN(Cc3cc(N4CCCN(C)CC4)ccc3C(F)(F)F)CC2)cc1` [Compound 45, 1-(3-((4-(bis(4-methylphenyl)methyl)piperazin-1-yl)methyl)-4-(trifluoromethyl)phenyl)-4-methyl-1,4-diazepane], the inhibition at 1 µM was > 75%.

Turning to `CN(C)C1CCN(c2ccc(C(F)(F)F)c(CN3CCN(c4ccc(Cl)cc4)CC3)c2)C1` (centres unmarked) [Compound 29, 1-(3-((4-(4-chlorophenyl)piperazin-1-yl)methyl)-4-(trifluoromethyl)phenyl)-N,N-dimethylpyrrolidin-3-amine], the inhibition at 1 µM is > 75%.

On to `CN(CCn1ccnc1)c1ccc(C#N)c(CN2CCN(C(c3ccc(Cl)cc3)c3ccc(Cl)cc3)CC2)c1` [Compound 78, 4-((2-(1H-imidazol-1-yl)ethyl)(methyl)amino)-2-((4-(bis(4-chlorophenyl)methyl)piperazin-1-yl)methyl)benzonitrile], for which the inhibition at 1 µM is > 75%.

For the molecule `CN(CCN1CCCC1)c1ccc(C(F)(F)F)c(CN2CCC(c3ccc(Cl)cc3)CC2)c1` [Compound 39, 3-((4-(4-chlorophenyl)piperidin-1-yl)methyl)-N-methyl-N-(2-(pyrrolidin-1)ethyl)-4-(trifluoromethyl)aniline], the inhibition at 1 µM was > 75%.

Turning to `CN(C)CCN(C)c1ccc(C#N)c(CN2CCN(C(c3ccc(C(C)(C)C)cc3)c3ccc(C(C)(C)C)cc3)CC2)c1` [Compound 82, 2-((4-(bis(4-tert-butylphenyl)methyl)piperazin-1-yl)methyl)-4-((2-(dimethylamino)ethyl)(methyl)amino)benzonitrile], the inhibition at 1 µM was > 75%.

Consider `Cc1cc(N2CCN(Cc3cc(N(C)CCN(C)C)ccc3C(F)(F)F)CC2)ccc1Cl` [Compound 108, N^1-(3-((4-(4-chloro-3-methylphenyl)piperazin-1-yl)methyl)-4-(trifluoromethyl)phenyl)-N^1,N^2,N^2-trimethylethan-1,2-diamine], for which the inhibition at 1 µM was > 75%.

On to `Cc1ccc(CN2CCN(Cc3cc(N(C)CCN(C)C)ccc3C(F)(F)F)CC2)cc1` [Compound 10, N^1,N^1,N^2-trimethyl-N^2-(3-((4-(4-methylbenzyl)piperazin-1-yl)methyl)-4-(trifluoromethyl)phenyl)ethan-1,2-diamine], for which the inhibition at 1 µM is 50 to 75%.

For `COc1ccc(C(c2ccc(OC)cc2)N2CCN(Cc3cc(N(C)CCN(C)C)ccc3C(F)(F)F)CC2)cc1` [Compound 58, N^1-(3-((4-(bis(4-methoxyphenyl)methyl)piperazin-1-yl)methyl)-4-(trifluoromethyl)phenyl)-N^1,N^2,N^2-trimethylethan-1,2-diamine], the inhibition at 1 µM is > 75%.

`CN(C)CCN(C)c1ccc(C(F)(F)F)c(CN2CCN(c3ccc(Br)c(Cl)c3)CC2)c1` [Compound 26, N^1-(3-((4-(4-bromo-3-chlorophenyl)piperazin-1-yl)methyl)-4-(trifluoromethyl)phenyl)-N^1,N^2,N^2-trimethylethan-1,2-diamine]: the inhibition at 1 µM is > 75%.

`CN(C)CCN(C)c1ccc(C(F)(F)F)c(CN2CCN(C(c3ccccc3)c3ccc(Cl)cc3)CC2)c1` (centres unmarked) [Compound 54, N^1-(3-((4-((4-chlorophenyl)(phenyl)methyl)piperazin-1-yl)methyl)-4-(trifluoromethyl)phenyl)-N^1,N^2,N^2-trimethylethan-1,2-diamine]: the inhibition at 1 µM is > 75%.

`CN(C)CCN(C)CCN(C)c1ccc(C(F)(F)F)c(CN2CCN(C(c3ccc(F)cc3)c3ccc(F)cc3)CC2)c1` [Compound 71, N^1-(3-((4-(bis(4-fluorophenyl)methyl)piperazin-1-yl)methyl)-4-(trifluoromethyl)phenyl)-N^2-(2-(dimethylamino)ethyl)-N^1,N^2-dimethylethan-1,2-diamine]: the inhibition at 1 µM is > 75%.

For the molecule `CCN1CCN(c2ccc(C#N)c(CN3CCN(Cc4ccc(Cl)c(C)c4)CC3)c2)CC1` [Compound 11, 2-((4-(4-chloro-3-methylbenzyl)piperazin-1-yl)methyl)-4-(4-ethylpiperazin-1-yl)benzonitrile], the inhibition at 1 µM lay in the range of 50 to 75%.

Turning to `CCCC1CN(c2ccc(C(F)(F)F)cc2)CCN1Cc1cc(N2CCCN(C)CC2)ccc1C(F)(F)F` (centres unmarked) [Compound 34, 1-methyl-4-(3-((2-propyl-4-(4-(trifluoromethyl)phenyl)piperazin-1-yl)methyl)-4-(trifluoromethyl)phenyl)-1,4-diazepane], the inhibition at 1 µM is > 75%.

`CN1CCCN(c2ccc(C(F)(F)F)c(CN3CCN(Cc4ccc(Cl)cc4)CC3)c2)CC1` [Compound 2, 1-(3-((4-(4-chlorobenzyl)piperazin-1-yl)methyl)-4-(trifluoromethyl)phenyl)-4-methyl-1,4-diazepane]: the inhibition at 1 µM was > 75%.

As to `CN(C)CCN(C)c1ccc(C#N)c(CN2CCN(C(c3ccncc3)c3ccncc3)CC2)c1` [Compound 79, 2-((4-(di(pyridin-4-yl)methyl)piperazin-1-yl)methyl)-4-((2-(dimethylamino)ethyl)(methyl)amino)benzonitrile], the inhibition at 1 µM lay within 50 to 75%.

Consider `CN1CCN(c2ccc(C(F)(F)F)c(CN3CCN(C(c4ccc(Cl)cc4)c4ccc(Cl)cc4)CC3)c2)CC1` [Compound 55, 1-(bis(4-chlorophenyl)methyl)-4-(5-(4-methylpiperazin-1-yl)-2-(trifluoromethyl)benzyl)piperazine], for which the inhibition at 1 µM is > 75%.

On to `CN(CC1CCCN1C)c1ccc(C(F)(F)F)c(CN2CCN(C(c3ccc(Cl)cc3)c3ccc(Cl)cc3)CC2)c1` (centres unmarked) [Compound 62, 3-((4-(bis(4-chlorophenyl)methyl)piperazin-1-yl)methyl)-N-methyl-N-((1-methylpyrrolidin-2-yl)methyl)-4-(trifluoromethyl)aniline], for which the inhibition at 1 µM was > 75%.

On to `CC(c1ccc(Br)cc1)N1CCN(Cc2cc(N3CCCN(C)CC3)ccc2C(F)(F)F)CC1` (centres unmarked) [Compound 1, 1-(3-((4-(1-(4-bromophenyl)ethyl)piperazin-1-yl)methyl)-4-(trifluoromethyl)phenyl)-4-methyl-1,4-diazepane], for which the inhibition at 1 µM is > 75%.

Take `CN(C)C1CCN(c2ccc(C(F)(F)F)c(CN3CCN(C(c4ccc(F)cc4)c4ccc(F)cc4)CC3)c2)CC1` [Compound 69, 1-(3-((4-(bis(4-fluorophenyl)methyl)piperazin-1-yl)methyl)-4-(trifluoromethyl)phenyl)-N,N-dimethylpiperidin-4-amine]: the inhibition at 1 µM was > 75%.

As to `CN(C)CCN(C)c1ccc(C#N)c(CN2CCC(C(c3ccc(Cl)cc3)c3ccc(Cl)cc3)CC2)c1` [Compound 90, 2-((4-(bis(4-chlorophenyl)methyl)piperidin-1-yl)methyl)-4-((2-(dimethylamino)ethyl)(methyl)amino)benzonitrile], the inhibition at 1 µM was > 75%.

For `CN1CCN(c2ccc(C(F)(F)F)c(CN3CCN(C(c4ccc(Br)cc4)c4ccc(Br)cc4)CC3)c2)CC1` [Compound 68, 1-(bis(4-bromophenyl)methyl)-4-(5-(4-methylpiperazin-1-yl)-2-(trifluoromethyl)benzyl)piperazine], the inhibition at 1 µM was > 75%.

Take `CN(C)C1CCCN(c2ccc(C(F)(F)F)c(CN3CCN(C(c4ccc(Cl)cc4)c4ccc(Cl)cc4)CC3)c2)C1` (centres unmarked) [Compound 67, 1-(3-((4-(bis(4-chlorophenyl)methyl)piperazin-1-yl)methyl)-4-(trifluoromethyl)phenyl)-N,N-dimethylpiperidin-3-amine]: the inhibition at 1 µM was > 75%.

On to `CN(C)CCN(C)c1ccc(C(F)(F)F)c(CN2CCN(c3ccc(Cl)c(F)c3)CC2)c1` [Compound 41, N^1-(3-((4-(4-chloro-3-fluorophenyl)piperazin-1-yl)methyl)-4-(trifluoromethyl)phenyl)-N^1,N^2,N^2-trimethylethan-1,2-diamine], for which the inhibition at 1 µM is > 75%.

The values are drawn from patent publication US11939307B2, “Phenylmethyl-piperazine derivatives and antiviral uses thereof” (INSTITUTE OF MEDICINAL BIOTECHNOLOGY, CHINESE ACADEMY OF …, priority 2019, dated 2024).
